Assay results: patent US8785460B2, “Tricyclic compounds and use thereof” (Takeda Pharmaceutical Company Limited, priority 2008, dated 2014)

Key:
human CRF1 receptor = target: T1, human CRF1 receptor (Homo sapiens, UniProt P34998); assay: Measurement of CRF Binding Inhibitory Rate (receptor binding experiment with 125I-CRF); details: human CRF1 receptor expressing CHO cellular membrane fraction, 50 pM 125I-CRF, room temperature 1.5 hr, 0.05 nM to 10 μM of compound; read-out: IC50 values (CRF binding inhibition)
T1 construct: expressed in transfected cells; host or cells: CHO cells (membrane fraction)
T1 sequence (P34998 24-415): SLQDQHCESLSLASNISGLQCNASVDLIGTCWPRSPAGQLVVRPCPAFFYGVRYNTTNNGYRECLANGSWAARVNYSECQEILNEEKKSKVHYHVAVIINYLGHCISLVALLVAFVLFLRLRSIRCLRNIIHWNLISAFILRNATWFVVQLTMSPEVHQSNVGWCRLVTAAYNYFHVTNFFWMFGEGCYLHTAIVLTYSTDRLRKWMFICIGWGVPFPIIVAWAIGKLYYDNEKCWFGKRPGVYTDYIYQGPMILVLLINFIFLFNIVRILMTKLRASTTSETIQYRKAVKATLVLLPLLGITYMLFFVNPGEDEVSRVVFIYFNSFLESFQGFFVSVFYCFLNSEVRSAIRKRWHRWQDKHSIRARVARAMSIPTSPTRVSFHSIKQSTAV

Structure (SMILES)	IC50 (human CRF1 receptor) [nM]	melting point [°C]
CCC(OC(=O)C1CC1)c1ccc(Cl)c2nc3n(c12)CCCN3c1ncc(Cl)cc1Cl (stereo not drawn) [Example 172, 1-[9-Chloro-1-(3,5-dichloropyridin-2-yl)-1,2,3,4-tetrahydropyrimido[1,2-a]benzimidazol-6-yl]propyl cyclopropanecarboxylate]	< 1000	154 to 155
COc1nc(C)nc(OC)c1N1CCCn2c1nc1c(Cl)ccc(C(O)(C3CC3)C3CC3)c12 [Example 174, [9-Chloro-1-(4,6-dimethoxy-2-methylpyrimidin-5-yl)-1,2,3,4-tetrahydropyrimido[1,2-a]benzimidazol-6-yl](dicyclopropyl)methanol]	< 1000	204 to 205
Cc1cnc(N2CCCn3c2nc2c(Cl)ccc(C(O)(C4CC4)C4CC4)c23)c(C)n1 [Example 176, [9-Chloro-1-(3,5-dimethylpyrazin-2-yl)-1,2,3,4-tetrahydropyrimido[1,2-a]benzimidazol-6-yl](dicyclopropyl)methanol]	< 1000	152 to 153
COc1nc(C)c(N2CCCn3c2nc2c(Cl)ccc(C(O)(C4CC4)C4CC4)c23)c(C)n1 [Example 188, [9-Chloro-1-(2-methoxy-4,6-dimethylpyrimidin-5-yl)-1,2,3,4-tetrahydropyrimido[1,2-a]benzimidazol-6-yl](dicyclopropyl)methanol]	< 1000	220 to 221
COc1nc(C)c(N2CCCn3c2nc2c(Cl)ccc(C(OCC(F)(F)F)C4CC4)c23)c(C)n1 (stereo not drawn) [Example 189, 9-Chloro-6-[cyclopropyl(2,2,2-trifluoroethoxy)methyl]-1-(2-methoxy-4,6-dimethylpyrimidin-5-yl)-1,2,3,4-tetrahydropyrimido[1,2-a]benzimidazole]	< 1000	225 to 227
CC/C(=N\OC(F)F)c1ccc(Cl)c2nc3n(c12)CCCN3c1c(C)nc(OC)nc1C [Example 193, (1E)-1-[9-Chloro-1-(2-methoxy-4,6-dimethylpyrimidin-5-yl)-1,2,3,4-tetrahydropyrimido[1,2-a]benzimidazol-6-yl]propan-1-one O-(difluoromethyl)oxime]	< 1000	199 to 200
CCc1cc(CC)n(-c2ccc(Cl)c3nc4n(c23)CCCN4c2ccc(Cl)cc2Cl)n1 [Example 197, 9-Chloro-1-(2,4-dichlorophenyl)-6-(3,5-diethyl-1H-pyrazol-1-yl)-1,2,3,4-tetrahydropyrimido[1,2-a]benzimidazole]	< 1000	185 to 187
COC(c1cccc2nc3n(c12)CCCN3c1ccc(Cl)cc1Cl)C1CC1 (stereo not drawn) [Example 200, 6-[Cyclopropyl(methoxy)methyl]-1-(2,4-dichlorophenyl)-1,2,3,4-tetrahydropyrimido[1,2-a]benzimidazole]	< 1000	118 to 119
COC(c1cccc2nc3n(c12)CCCN3c1ccc(Cl)cc1Cl)C(F)(F)F (stereo not drawn) [Example 202, 1-(2,4-Dichlorophenyl)-6-(2,2,2-trifluoro-1-methoxyethyl)-1,2,3,4-tetrahydropyrimido[1,2-a]benzimidazole]	< 1000	164 to 165
CCC(CC(N)=O)c1cccc2nc3n(c12)CCCN3c1ccc(Cl)cc1Cl (stereo not drawn) [Example 205, 3-[1-(2,4-Dichlorophenyl)-1,2,3,4-tetrahydropyrimido[1,2-a]benzimidazol-6-yl]pentanamide]	< 1000	132 to 133
CCOc1nc(C)c(N2CCCn3c2nc2c(Cl)ccc(C(OC(F)F)C(F)(F)F)c23)c(C)n1 (stereo not drawn) [Example 210, 9-Chloro-6-[1-(difluoromethoxy)-2,2,2-trifluoroethyl]-1-(2-ethoxy-4,6-dimethylpyrimidin-5-yl)-1,2,3,4-tetrahydropyrimido[1,2-a]benzimidazole]	< 1000	218 to 220
Cc1nc(OC(C)C)nc(C)c1N1CCCn2c1nc1c(Cl)ccc(C(OC(F)F)C(F)(F)F)c12 (stereo not drawn) [Example 211, 9-Chloro-6-[1-(difluoromethoxy)-2,2,2-trifluoroethyl]-1-[4,6-dimethyl-2-(1-methylethoxy)pyrimidin-5-yl]-1,2,3,4-tetrahydropyrimido[1,2-a]benzimidazole]	< 1000	227 to 230
Cc1nc(C(C)C)nc(C)c1N1CCCn2c1nc1c(Cl)ccc(C(OC(F)F)C(F)(F)F)c12 (stereo not drawn) [Example 214, 9-Chloro-6-[1-(difluoromethoxy)-2,2,2-trifluoroethyl]-1-[4,6-dimethyl-2-(1-methylethyl)pyrimidin-5-yl]-1,2,3,4-tetrahydropyrimido[1,2-a]benzimidazole]	< 1000	204 to 206
Cc1nc(OC(F)F)nc(C)c1N1CCCn2c1nc1c(Cl)ccc(C(OC(F)F)C(F)(F)F)c12 (stereo not drawn) [Example 216, 9-Chloro-1-[2-(difluoromethoxy)-4,6-dimethylpyrimidin-5-yl]-6-[1-(difluoromethoxy)-2,2,2-trifluoroethyl]-1,2,3,4-tetrahydropyrimido[1,2-a]benzimidazole]	< 1000	165 to 166
Cc1nc(C2CC2)nc(C)c1N1CCCn2c1nc1c(Cl)ccc(C(OC(F)F)C(F)(F)F)c12 (stereo not drawn) [Example 218, 9-Chloro-1-(2-cyclopropyl-4,6-dimethylpyrimidin-5-yl)-6-[1-(difluoromethoxy)-2,2,2-trifluoroethyl]-1,2,3,4-tetrahydropyrimido[1,2-a]benzimidazole]	< 1000	191 to 193
CCC(c1ccc(Cl)c2nc3n(c12)CCCN3c1c(C)nc(OC)nc1C)C(F)F (stereo not drawn) [Example 222, 9-Chloro-6-[1-(difluoromethyl)propyl]-1-(2-methoxy-4,6-dimethylpyrimidin-5-yl)-1,2,3,4-tetrahydropyrimido[1,2-a]benzimidazole]	< 1000	181 to 183
CCC(CC)c1ccc(Cl)c2nc3n(c12)CCCCN3c1cc(C)cc2c1ncn2C [Example 230, 10-Chloro-1-(1,6-dimethyl-1H-benzimidazol-4-yl)-7-(1-ethylpropyl)-2,3,4,5-tetrahydro-1H-[1,3]diazepino[1,2-a]benzimidazole]	< 1000	259 to 260
CCN(CC)c1cccc2nc3n(c12)CC(F)(F)CN3c1ccc(Cl)cc1Cl [Example 231, 1-(2,4-Dichlorophenyl)-N,N-diethyl-3,3-difluoro-1,2,3,4-tetrahydropyrimido[1,2-a]benzimidazol-6-amine]	< 1000	125 to 127
CCCC(O)(CCC)c1ccc(Cl)c2nc3n(c12)CCCN3c1ccc(Cl)cc1Cl [Example 233, 4-[9-Chloro-1-(2,4-dichlorophenyl)-1,2,3,4-tetrahydropyrimido[1,2-a]benzimidazol-6-yl]heptan-4-ol]	< 1000	133 to 135
COC(c1ccc(Cl)c2nc3n(c12)CCCN3c1ccc(Cl)cc1Cl)C(C)C (stereo not drawn) [Example 235, 9-Chloro-1-(2,4-dichlorophenyl)-6-(1-methoxy-2-methylpropyl)-1,2,3,4-tetrahydropyrimido[1,2-a]benzimidazole]	< 1000	162 to 164
CCC(OCC1CC1)c1ccc(Cl)c2nc3n(c12)CCCN3c1ccc(Cl)cc1Cl (stereo not drawn) [Example 236, 9-Chloro-6-[1-(cyclopropylmethoxy)propyl]-1-(2,4-dichlorophenyl)-1,2,3,4-tetrahydropyrimido[1,2-a]benzimidazole]	< 1000	159 to 160
CCC(=O)OC(CC)c1ccc(Cl)c2nc3n(c12)CCCN3c1ccc(Cl)cc1Cl (stereo not drawn) [Example 241, 1-[9-Chloro-1-(2,4-dichlorophenyl)-1,2,3,4-tetrahydropyrimido[1,2-a]benzimidazol-6-yl]propyl propanoate]	< 1000	133 to 135
CC(=O)OC(C)c1ccc(Cl)c2nc3n(c12)CCCN3c1ccc(Cl)cc1Cl (stereo not drawn) [Example 243, 1-[9-Chloro-1-(2,4-dichlorophenyl)-1,2,3,4-tetrahydropyrimido[1,2-a]benzimidazol-6-yl]ethyl acetate]	< 1000	204 to 206
CC(=O)OC(c1ccc(Cl)c2nc3n(c12)CCCN3c1ccc(Cl)cc1Cl)C1CC1 (stereo not drawn) [Example 244, [9-Chloro-1-(2,4-dichlorophenyl)-1,2,3,4-tetrahydropyrimido[1,2-a]benzimidazol-6-yl](cyclopropyl)methyl acetate]	< 1000	208 to 210
CCC(OC(C)=O)c1ccc(Cl)c2nc3n(c12)CCCN3c1ccc(C(C)=O)cc1Cl (stereo not drawn) [Example 250, 1-[1-(4-Acetyl-2-chlorophenyl)-9-chloro-1,2,3,4-tetrahydropyrimido[1,2-a]benzimidazol-6-yl]propyl acetate]	< 1000	183 to 186
CCC(OC(C)=O)c1ccc(Cl)c2nc3n(c12)CCCN3c1ccc(C(C)(C)O)cc1Cl (stereo not drawn) [Example 252, 1-{9-Chloro-1-[2-chloro-4-(1-hydroxy-1-methylethyl)phenyl]-1,2,3,4-tetrahydropyrimido[1,2-a]benzimidazol-6-yl}propyl acetate]	< 1000	184 to 186
CCC(OC(C)=O)c1ccc(Cl)c2nc3n(c12)CCCN3c1ccc(OC)cc1Cl (stereo not drawn) [Example 260, 1-[9-Chloro-1-(2-chloro-4-methoxyphenyl)-1,2,3,4-tetrahydropyrimido[1,2-a]benzimidazol-6-yl]propyl acetate]	< 1000	178 to 180
